According to patent US11072617B2, “Bicyclic sulfones and sulfoxides and methods of use thereof” (Genentech, Inc., priority 2017, dated 2021):

What follows are compounds tested against human RIP1 kinase domain (2-375) (Homo sapiens (Human), UniProt Q13546) (assay: RIP1 kinase inhibition biochemical assay (Transcreener ADP, fluorescence polarization)). Settings: Ki app from tight-binding Morrison equation; 50 nM enzyme, 50 uM ATP, 2 hours incubation.
In short: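 Baculovirus-expressed human RIP1 kinase domain (2-375), 50 nM, incubated 2 h with compounds in pH 7.5 Hepes, 30 mM MgCl2, 50 uM ATP, 0.5% DMSO. ADP detected by Transcreener fluorescence-polarization tracer displacement; Ki^app from Morrison tight-binding fit.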

human RIP1 kinase domain (2-375), sequence (Q13546 2-375): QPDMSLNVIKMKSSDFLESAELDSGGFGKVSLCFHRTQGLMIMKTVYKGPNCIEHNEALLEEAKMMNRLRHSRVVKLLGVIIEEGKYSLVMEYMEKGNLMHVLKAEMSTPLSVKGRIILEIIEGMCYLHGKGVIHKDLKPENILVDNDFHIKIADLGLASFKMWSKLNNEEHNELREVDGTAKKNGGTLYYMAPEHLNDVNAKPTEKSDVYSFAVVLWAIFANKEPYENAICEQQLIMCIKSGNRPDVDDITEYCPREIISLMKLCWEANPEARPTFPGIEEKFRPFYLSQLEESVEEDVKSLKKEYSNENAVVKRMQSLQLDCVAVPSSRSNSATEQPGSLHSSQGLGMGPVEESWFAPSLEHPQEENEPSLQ

| Ki [nM] | SMILES |
| --- | --- |
| 10 | [O-][S@+](c1nc2n(n1)[C@H](c1ccccc1)CC2)C(F)F [Example 11, (5S)-2-[(R)-difluoromethylsulfinyl]-5-phenyl-6,7-dihydro-5H-pyrrolo[1,2-b][1,2,4]triazole] |
| 540 | O=S(=O)(c1nc2n(n1)[C@@H](c1cccc(F)c1F)C[C@H]2F)C(F)(F)F (single isomer, unassigned) [Example 140] |
| < 5 | O=S(=O)(c1nc2n(n1)[C@H](c1cccc(F)c1)C[C@@H]2F)C1CC1 (single isomer, unassigned) [Example 48] |
| 6 | O=S(=O)(c1nc2n(n1)[C@H](c1cc(F)cc(F)c1F)C[C@@H]2F)C1CC1 (single isomer, unassigned) [Example 39] |
| 26 | CCCS(=O)(=O)c1nc2n(n1)[C@H](c1ccccc1)C[C@@H]2F (single isomer, unassigned) [Example 161] |
| 7 | O=S(=O)(c1nc2n(n1)[C@H](c1ccccc1)C[C@@H]2F)[C@H]1C[C@@H]1C(F)(F)F (mixture of isomers) [Example 163, (5S,7S)-7-fluoro-5-phenyl-2-[rac-(1S,2R)-2-(trifluoromethyl)cyclopropyl]sulfonyl-6,7-dihydro-5H-pyrrolo[1,2-b][1,2,4]triazole] |
| 23 | O=S(=O)(CF)c1nc2n(n1)[C@H](c1ccccc1)C[C@@H]2F (single isomer, unassigned) [Example 72] |
| 34 | O=S(=O)(c1nc2n(n1)[C@H](c1ccc(F)c(F)c1)C[C@@H]2F)C(F)F (single isomer, unassigned) [Example 63] |
| 6 | [O-][S@+](c1nc2n(n1)[C@H](c1cccc(F)c1)C[C@@H]2F)C(F)F (single isomer, unassigned) [Example 182] |
| 18 | C[C@H](F)S(=O)(=O)c1nc2n(n1)[C@H](c1ccccc1)C[C@@H]2F (single isomer, unassigned) [Example 160] |
| 4 | O=S(=O)(c1nc2n(n1)[C@H](c1ccccc1)C[C@@H]2F)[C@@H]1CC1(F)F (single isomer, unassigned) [Example 131] |
| < 5 | O=S(=O)(c1nc2n(n1)[C@H](c1cc(F)cc(F)c1)C[C@@H]2F)C1CC1 (single isomer, unassigned) [Example 42] |
| < 5 | O=S(=O)(c1nc2n(n1)[C@H](c1ccccc1Cl)C[C@@H]2F)[C@@H]1CC1(F)F (single isomer, unassigned) [Example 125] |
| 530 | N#CC[S@+]([O-])c1nc2n(n1)[C@H](c1ccc(F)cc1)C[C@@H]2F (single isomer, unassigned) [Example 99] |
| 32 | CC(C)(C)S(=O)(=O)c1nc2n(n1)[C@H](c1ccccc1)C[C@@H]2F (single isomer, unassigned) [Example 25] |

The remaining lines, values behind:

| SMILES | Ki [nM] |
| --- | --- |
| N#CCSc1nc2n(n1)[C@H](c1ccccc1)C[C@@H]2F (single isomer, unassigned) [Example 89] | 10 |
| O=S(=O)(c1nc2n(n1)[C@H](c1ccc(F)cc1)C[C@@H]2F)C1CC1F (stereo in doubt) [Example 197, (5S,7S)-7-fluoro-5-(4-fluorophenyl)-2-[(1R,2R)-2-fluorocyclopropyl]sulfonyl-6,7-dihydro-5H-pyrrolo[1,2-b][1,2,4]triazole] | 8 |
| CC(C)(C#N)S(=O)(=O)c1nc2n(n1)[C@H](c1ccccc1)C[C@@H]2F (single isomer, unassigned) [Example 104] | 14 |
| O=S(=O)(c1nc2n(n1)[C@H](c1cc(F)ccc1F)C[C@@H]2F)[C@@H]1CC1(F)F (single isomer, unassigned) [Example 127] | 6 |
| [O-][S@+](CF)c1nc2n(n1)[C@H](c1ccccc1Cl)C[C@@H]2F (single isomer, unassigned) [Example 87] | 100 |
| O=S(=O)(c1nc2n(n1)[C@H](c1cc(F)cc(F)c1)C[C@@H]2F)[C@H]1C[C@H](F)C1 (single isomer, unassigned) [Example 193] | 23 |
| O=S(=O)(c1nc2n(n1)[C@H](c1ccccc1)C[C@@H]2F)[C@H]1CCC1(F)F [Example 172, (5S,7S)-7-fluoro-5-phenyl-2-[(1S)-2,2-difluorocyclobutyl]sulfonyl-6,7-dihydro-5H-pyrrolo[1,2-b][1,2,4]triazole] | 6 |
| [O-][S@@+](c1nc2n(n1)[C@H](c1ccccc1)C[C@@H]2F)C(F)(F)F (single isomer, unassigned) [Example 180] | 300 |
| O=S(=O)(c1nc2n(n1)[C@H](c1cccc(F)c1F)C[C@@H]2F)C1CC1 (single isomer, unassigned) [Example 40] | 5 |
| [O-][S+](c1nc2n(n1)C(c1ccccc1)CC2)C(F)(F)F (centres unmarked) [Example 10, 5-phenyl-2-(trifluoromethylsulfinyl)-6,7-dihydro-5H-pyrrolo[1,2-b][1,2,4]triazole] | 89 |
| N#CC[S@@+]([O-])c1nc2n(n1)[C@H](c1cccc(F)c1)C[C@@H]2F (single isomer, unassigned) [Example 98] | 3 |
| CC1(S(=O)(=O)c2nc3n(n2)[C@H](c2ccccc2)C[C@@H]3F)CC1 (single isomer, unassigned) [Example 150] | 21 |
| [O-][S@@+](CC1CC1)c1nc2n(n1)[C@H](c1ccccc1)C[C@@H]2F (single isomer, unassigned) [Example 186] | 20 |
| O=S(=O)(c1nc2n(n1)[C@H](c1cc(F)cc(Cl)c1)C[C@@H]2F)C1CC1 (single isomer, unassigned) [Example 214] | 29 |
| [O-][S@@+](CF)c1nc2n(n1)[C@H](c1ccccc1F)C[C@@H]2F (single isomer, unassigned) [Example 74] | < 5 |
| N#CC[S@+]([O-])c1nc2n(n1)[C@@H](c1ccccc1Cl)C[C@H]2F (single isomer, unassigned) [Example 101] | 47 |
| O=S(=O)(c1nc2n(n1)[C@H](c1cc(F)ccc1F)C[C@@H]2F)C(F)(F)F (single isomer, unassigned) [Example 138] | < 5 |
| CC(F)(F)S(=O)(=O)c1nc2n(n1)[C@H](c1ccccc1)C[C@@H]2F (single isomer, unassigned) [Example 149] | 16 |

| SMILES | Ki [nM] |
| --- | --- |
| O=S(=O)(c1nc2n(n1)[C@H](c1ccc(F)cc1)C[C@@H]2F)C(F)F (single isomer, unassigned) [Example 56] | 55 |
| O=S(=O)(c1nc2n(n1)[C@H](c1cccc(F)c1)C[C@@H]2F)[C@@H]1C[C@H]1F (single isomer, unassigned) [Example 142] | < 5 |
| O=S(=O)(c1nc2n(n1)[C@H](c1cc(F)ccc1F)C[C@@H]2F)C(F)F (single isomer, unassigned) [Example 67] | 5 |
| O=S(=O)(c1nc2n(n1)[C@H](c1cc(F)cc(F)c1F)C[C@@H]2F)C(F)F (single isomer, unassigned) [Example 60] | 7 |
| O=S(=O)(c1nc2n(n1)[C@H](c1ccccc1F)C[C@@H]2F)[C@@H]1CC1(F)F (single isomer, unassigned) [Example 124] | < 5 |
| O=S(=O)(c1nc2n(n1)[C@H](c1cc(Cl)ccc1F)C[C@@H]2F)C1CC1F (stereo in doubt) [Example 218, (5S,7S)-5-(5-chloro-2-fluoro-phenyl)-7-fluoro-2-[(1R,2R)-2-fluorocyclopropyl]sulfonyl-6,7-dihydro-5H-pyrrolo[1,2-b][1,2,4]triazole] | 140 |
| [O-][S@@+](CF)c1nc2n(n1)[C@H](c1ccccc1)C[C@@H]2F (single isomer, unassigned) [Example 73] | 3 |
| N#CC1CC1S(=O)(=O)c1nc2n(n1)[C@H](c1ccccc1)C[C@@H]2F (stereo in doubt) [Example 222, (1R,2R)-2-[[(5S,7S)-7-fluoro-5-phenyl-6,7-dihydro-5H-pyrrolo[1,2-b][1,2,4]triazol-2-yl]sulfonyl]cyclopropanecarbonitrile] | 61 |
| [O-][S+](c1nc2n(n1)[C@H](c1ccccc1)C[C@@H]2F)C(F)F (mixture of isomers) [Example 13, Rac-(5S,7S)-2-((difluoromethyl)sulfinyl)-7-fluoro-5-phenyl-6,7-dihydro-5H-pyrrolo[1,2-b][1,2,4]triazole] | 42 |
| O=S(=O)(c1nc2n(n1)[C@H](c1cccc(Cl)c1)C[C@@H]2F)C1CC1 [Example 203, (5S,7S)-5-(3-chlorophenyl)-2-cyclopropylsulfonyl-7-fluoro-6,7-dihydro-5H-pyrrolo[1,2-b][1,2,4]triazole] | 39 |
| O=S(=O)(c1nc2n(n1)[C@H](c1ccccc1)C[C@@H]2F)[C@H]1C[C@@H](CO)C1 (single isomer, unassigned) [Example 168] | 530 |
| O=S(=O)(c1nc2n(n1)[C@H](c1ccccc1)C[C@@H]2F)[C@@H]1CCC1(F)F [Example 171, (5S,7S)-7-fluoro-5-phenyl-2-[(1R)-2,2-difluorocyclobutyl]sulfonyl-6,7-dihydro-5H-pyrrolo[1,2-b][1,2,4]triazole] | < 5 |
| N#C[C@@H]1C[C@H]1S(=O)(=O)c1nc2n(n1)[C@H](c1ccccc1)C[C@@H]2F [Example 212, (1S,2R)-2-[[(5S,7S)-7-fluoro-5-phenyl-6,7-dihydro-5H-pyrrolo[1,2-b][1,2,4]triazol-2-yl]sulfonyl]cyclopropanecarbonitrile] | 11 |
| [O-][S+](c1nc2n(n1)C(c1ccccc1)CC2)C(F)(F)c1ccccc1 (centres unmarked) [Example 5, 2-[difluoro(phenyl)methyl]sulfinyl-5-phenyl-6,7-dihydro-5H-pyrrolo[1,2-b][1,2,4]triazole] | 548 |
| N#Cc1ccccc1[C@@H]1C[C@H](F)c2nc(S(=O)(=O)C(F)F)nn21 (single isomer, unassigned) [Example 62] | 266 |
| O=S(=O)(c1nc2n(n1)[C@H](c1cccc(Cl)c1)C[C@@H]2F)C(F)F (single isomer, unassigned) [Example 61] | 39 |
| N#CC[S@+]([O-])c1nc2n(n1)[C@H](c1ccccc1F)C[C@@H]2F (single isomer, unassigned) [Example 95] | 190 |
